In patent US11046949B2, “Method and system for microbial lysis using periodates” (priority 2014, dated 2021):
Values joined by “and” are separate entries in the source; they are usually repeats but may differ in a detail not shown here. Equal entries are not always repeated. Where two headings read alike, the source gives them in different places.

How the values were obtained:
[1] = tested on: Mycobacteria; experiment: Release of DNA from Mycobacteria by solvents, detergents, formic acid, borate; assay type: cell-based, Mycobacterium; conditions: solvents to strip waxy cell wall component
Experimental: The hardy cell wall of Mycobacterium consists of a thick, waxy, hydrophobic, mycolate layer and a peptidoglycan layer held together by polysaccharide. […] Similarly, various detergents (e.g., SDS), formic acid, and borate were tested at elevated temperatures.

[2] = tested on: Bacillus subtilis vegetative cells; experiment: DNA release from B. subtilis by per-halogenated and oxidizing compounds, Acid-Hydrolysis HPLC Method; assay type: cell-based; conditions: 70° C. 20 minutes; for % DNA release / AUC, Ade: 15 mM compound in BD buffer, samples 1-3; for % DNA release (Average) / AUC, Ade (Average): 15 mM compound, average of 3
[3] = tested on: attenuated M. tuberculosis (aMTB) spiked in saliva; assay type: cell-based, Mycobacterium tuberculosis
[4] = tested on: C. difficile spores; assay type: cell-based, Clostridium difficile
[5] = tested on: C. botulinum Type B spores; assay type: cell-based, Clostridium botulinum; conditions: Post-Periodate: BD2 buffer, 30 mM NPI, 70° C. 20 minutes, FIG. 16
[6] = tested on: F. philomiragia; assay type: cell-based, Francisella philomiragia; conditions: BD2 buffer
[7] = tested on: F. philomiragia; assay type: cell-based, Francisella philomiragia; conditions: periodate +, BD2 buffer
[8] = tested on: M. smegmatis; assay type: cell-based, Mycobacterium smegmatis; conditions: periodate +, BD2 buffer
[9] = target: pancreatic ribonuclease A (RNase A) (Bos taurus, UniProt P61823); experiment: Inhibition of RNase A by pre-treatment with periodate, HeLa RNA integrity on agarose gel; conditions: RNase A pre-incubated with 15 mM periodate, 70° C. 15 minutes, FIG. 14
Sequence of pancreatic ribonuclease A (RNase A) (P61823 27-150): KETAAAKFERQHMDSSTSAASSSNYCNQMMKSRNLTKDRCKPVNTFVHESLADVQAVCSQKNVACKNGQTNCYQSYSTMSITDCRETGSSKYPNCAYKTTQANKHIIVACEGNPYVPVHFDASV

[10] = tested on: M. smegmatis; assay type: cell-based, Mycobacterium smegmatis; conditions: BD2 buffer
[11] = tested on: B. thuringiensis; assay type: cell-based, Bacillus thuringiensis; conditions: BD2 buffer
[12] = tested on: K. pneumonia; assay type: cell-based, Klebsiella pneumonia; conditions: BD2 buffer
[13] = tested on: S. aureus; assay type: cell-based, Staphylococcus aureus; conditions: periodate +, BD2 buffer
[14] = tested on: S. aureus; assay type: cell-based, Staphylococcus aureus; conditions: BD2 buffer
[15] = tested on: B. anthracis Sterne Strain spores; assay type: cell-based, Bacillus anthracis; conditions: Post-Periodate: BD2 buffer, 30 mM NPI, 70° C. 20 minutes, FIG. 15
[16] = tested on: Y. enterocolitica; assay type: cell-based, Yersinia enterocolitica; conditions: periodate +, BD2 buffer
[17] = tested on: Y. enterocolitica; assay type: cell-based, Yersinia enterocolitica; conditions: BD2 buffer
[18] = tested on: M. catarrhalis; assay type: cell-based, Moraxella catarrhalis; conditions: periodate +, BD2 buffer
[19] = tested on: P. aeruginosa; assay type: cell-based, Pseudomonas aeruginosa; conditions: BD2 buffer
[20] = tested on: attenuated MTB H37Ra (aMTB) spiked in sputum; experiment: DNA isolated from aMTB-spiked sputum using swabs and periodate, RD4 rtPCR
[21] = tested on: B. thuringiensis; assay type: cell-based, Bacillus thuringiensis; conditions: periodate +, BD2 buffer
[22] = tested on: M. tuberculosis in TB-positive sputum; experiment: TB-positive sputum, qPCR targeting RD4 MTBC region of difference; assay type: cell-based, Mycobacterium tuberculosis
[23] = tested on: Mycobacterium smegmatis lysate proteins; experiment: M. smegmatis lysate treated with periodate, SDS-PAGE; conditions: 7.5 and 15 mM periodate, 70° C. 15 minutes, FIG. 13
[24] = tested on: P. aeruginosa; assay type: cell-based, Pseudomonas aeruginosa; conditions: periodate +, BD2 buffer
[25] = tested on: K. pneumonia; assay type: cell-based, Klebsiella pneumonia; conditions: periodate +, BD2 buffer
[26] = tested on: M. catarrhalis; assay type: cell-based, Moraxella catarrhalis; conditions: BD2 buffer
[27] = tested on: C. albicans; assay type: cell-based, Candida albicans; conditions: BD2 buffer
[28] = target: Pancreatic Ribonuclease A (Bos taurus, UniProt P61823); experiment: Pure pancreatic ribonuclease A treated with periodate, SDS-PAGE; conditions: 15 mM periodate, 70° C. 15 minutes, FIG. 12
Sequence of Pancreatic Ribonuclease A (P61823 27-150): as above

[29] = tested on: C. albicans; conditions: periodate +, BD2 buffer
[30] = tested on: Mycobacterium smegmatis; experiment: NPI-mediated release of DNA from M. smegmatis as a function of pH, Acid-Extraction HPLC Method

## C[S+](C)[O-] [DMSO]
[1]
  release of DNA: no increased release of DNA was observed

## O=S(=O)([O-])OOS(=O)(=O)[O-].[Na+].[Na+] [Persulfate, sodium persulfate]
[2]
  % DNA release: 15.9% and 14.7% and 14.3%
  AUC, Ade: 202 and 187 and 182
  % DNA release (Average): 15.0%
  AUC, Ade (Average): 190.3
[2]; listed as sodium persulfate
  % DNA release (Average): 15%

## [Na+].[O-][Cl+3]([O-])([O-])[O-] [Perchlorate, sodium perchlorate, reference compound]
[2]
  % DNA release: 6.2% and 6.7% and 6.4%
  AUC, Ade: 79 and 85 and 81
  % DNA release (Average): 6.4%
  AUC, Ade (Average): 81.7

## O.O.O.O.[Na+].[O-]B1OO1 [Perborate, sodium perborate tetrahydrate, reference compound]
[2]
  % DNA release: 5.5% and 6.3% and 6.4%
  AUC, Ade: 70 and 80 and 82
  % DNA release (Average): 6.1%
  AUC, Ade (Average): 77.3

## [O-][I+3]([O-])([O-])O [Periodate, sodium (meta)periodate]
[3]
  Growth (up to 42 days): NEG
  Time to Positive: >42 days
  growth on LJ medium: no growth of any microorganism was observed
[4]
  spore viability by culture: no C. botulinum or C. difficile spores were viable by culture
[5]
  spore viability by culture: no C. botulinum or C. difficile spores were viable by culture
[2]
  % DNA release: 46.6% and 48.0% and 37.4%
  AUC, Ade: 594 and 611 and 476
  % DNA release (Average): 44.0%
  AUC, Ade (Average): 560.3
[2]; listed as sodium (meta)periodate
  % DNA release (Average): 44%
[6]; 35° C. 20 minutes
  % DNA Released: 65.3%
[6]; 70° C. 20 minutes
  % DNA Released: 89.4%
[6]; 80° C. 20 minutes
  % DNA Released: 92.0%
[7]; 35° C. 20 minutes
  Ct values: 15.3
[7]; 70° C. 20 minutes
  Ct values: 15.5
[7]; 80° C. 20 minutes
  Ct values: 16.0
[8]; 35° C. 20 minutes
  Ct values: 22.8
[8]; 70° C. 20 minutes
  Ct values: 18.1
[8]; 80° C. 20 minutes
  Ct values: 17.9
[9]
  RNase A activity on HeLa ribosomal RNA: ribosomal RNA was no longer degraded by RNase A
[10]; 35° C. 20 minutes
  % DNA Released: 49.7%
[10]; 70° C. 20 minutes
  % DNA Released: 85.2%
[10]; 80° C. 20 minutes
  % DNA Released: 80.6%
[11]; 35° C. 20 minutes
  % DNA Released: 42.1%
[11]; 70° C. 20 minutes
  % DNA Released: 103.5%
[11]; 80° C. 20 minutes
  % DNA Released: 107.7%
[12]; 35° C. 20 minutes
  % DNA Released: 49.0%
[12]; 70° C. 20 minutes
  % DNA Released: 119.2%
[12]; 80° C. 20 minutes
  % DNA Released: 124.4%
[13]; 35° C. 20 minutes
  Ct values: 15.5
[13]; 70° C. 20 minutes
  Ct values: 13.7
[13]; 80° C. 20 minutes
  Ct values: 15.0
[14]; 35° C. 20 minutes
  % DNA Released: 18.4%
[14]; 70° C. 20 minutes
  % DNA Released: 24.8%
[14]; 80° C. 20 minutes
  % DNA Released: 26.7%
[15]
  spore viability by culture: dramatically reduced the viability
[16]; 35° C. 20 minutes
  Ct values: 15.5
[16]; 70° C. 20 minutes
  Ct values: 12.0
[16]; 80° C. 20 minutes
  Ct values: 11.4
[17]; 35° C. 20 minutes
  % DNA Released: 52.1%
[17]; 70° C. 20 minutes
  % DNA Released: 80.8%
[17]; 80° C. 20 minutes
  % DNA Released: 89.5%
[18]; 35° C. 20 minutes
  Ct values: 16.3
[18]; 70° C. 20 minutes
  Ct values: 12.7
[18]; 80° C. 20 minutes
  Ct values: 10.8
[19]; 35° C. 20 minutes
  % DNA Released: 38.6%
[19]; 70° C. 20 minutes
  % DNA Released: 117.8%
[19]; 80° C. 20 minutes
  % DNA Released: 98.2%
[20]; 1:10 dilution of DNA, Copan
  Periodate efficiency (Ct Swab 6 (−) Ct average): 3.78
[20]; 1:10 dilution of DNA, Puritan
  Periodate efficiency (Ct Swab 6 (−) Ct average): 5.72
[20]; (+) periodate
  Ct value (1:10 dilution of DNA) Copan, Average: 27.55
  Ct value (1:10 dilution of DNA) Puritan, Average: 27.11
  Ct value (neat DNA) Copan, Average: 24.02
  Ct value (neat DNA) Puritan, Average: 23.69
[20]; (+) periodate 30 mM, Swabs 1-5
  Ct value (1:10 dilution of DNA) Copan: 26.49 and 28.11 and 29.12 and 33.99 and 26.47
  Ct value (1:10 dilution of DNA) Puritan: 26.24 and 27.74 and 26.60 and 27.29 and 27.67
  Ct value (neat DNA) Copan: 22.99 and 24.60 and 25.55 and 30 .09 and 22.93
  Ct value (neat DNA) Puritan: 22.67 and 24.19 and 23.28 and 23.93 and 24.36
[20]; neat DNA, Copan
  Periodate efficiency (Ct Swab 6 (−) Ct average): 3.73
[20]; neat DNA, Puritan
  Periodate efficiency (Ct Swab 6 (−) Ct average): 3.93
[20]; periodate included vs not included
  increase in the amount of aMTB-specific DNA recovered per swab: > 10 fold
[21]; 35° C. 20 minutes
  Ct values: 15.5
[21]; 70° C. 20 minutes
  Ct values: 10.3
[21]; 80° C. 20 minutes
  Ct values: 10.8
[22]
  Real-time PCR Ct value (in duplicate): 32/32 and 41/33 and 23/23 and 33/33 and 19/19 and 24/25
[23]
  protein bands in cell-free lysate: some protein bands selectively decreased or disappeared altogether
[24]; 35° C. 20 minutes
  Ct values: 10.8
[24]; 70° C. 20 minutes
  Ct values: 7.8
[24]; 80° C. 20 minutes
  Ct values: 8.8
[25]; 35° C. 20 minutes
  Ct values: 24.3
[25]; 70° C. 20 minutes
  Ct values: 9.3
[25]; 80° C. 20 minutes
  Ct values: 9.6
[26]; 35° C. 20 minutes
  % DNA Released: 77.1%
[26]; 70° C. 20 minutes
  % DNA Released: 143.6%
[26]; 80° C. 20 minutes
  % DNA Released: 140.5%
[27]; 35° C. 20 minutes
  % DNA Released: 105.4%
[27]; 70° C. 20 minutes
  % DNA Released: 155.3%
[27]; 80° C. 20 minutes
  % DNA Released: 156.4%
[28]
  quantity of full-length purified RNase protein: decreased
[29]; 35° C. 20 minutes
  Ct values: 27.1
[29]; 70° C. 20 minutes
  Ct values: 15.2
[29]; 80° C. 20 minutes
  Ct values: 15.7
[30]; 6 mM NPI in PAB buffer solutions pH 3.7-9.4, 70° C. 20 minutes
  percentage of total DNA released: 37.4-59.4%
[30]; 6 mM NPI, 70° C. 20 minutes
  increase of percentage of total DNA released vs no NPI: approximately 9 fold
